From paper PMC12337661, “PIEZO1 mechanical insensitivity in generalized lymphatic dysplasia with the potential for pharmacological rescue” (iScience, 2025)
Values joined by “and” are separate entries in the source; they are usually repeats but may differ in a detail not shown here. Equal values may be shown once.

Columns and labels:
Assay type in all cases: cell-based
I2286T mPIEZO1 = target: T1, I2286T mPIEZO1 (Mus musculus, UniProt E2JF22, I2286T); assay: Outside-out patch recording with pressure pulses; conditions: 5 μM; for current (example trace): 75 mmHg pulses
T1 construct: expressed in transfected cells
T1 sequence (E2JF22 whole entry I2286T): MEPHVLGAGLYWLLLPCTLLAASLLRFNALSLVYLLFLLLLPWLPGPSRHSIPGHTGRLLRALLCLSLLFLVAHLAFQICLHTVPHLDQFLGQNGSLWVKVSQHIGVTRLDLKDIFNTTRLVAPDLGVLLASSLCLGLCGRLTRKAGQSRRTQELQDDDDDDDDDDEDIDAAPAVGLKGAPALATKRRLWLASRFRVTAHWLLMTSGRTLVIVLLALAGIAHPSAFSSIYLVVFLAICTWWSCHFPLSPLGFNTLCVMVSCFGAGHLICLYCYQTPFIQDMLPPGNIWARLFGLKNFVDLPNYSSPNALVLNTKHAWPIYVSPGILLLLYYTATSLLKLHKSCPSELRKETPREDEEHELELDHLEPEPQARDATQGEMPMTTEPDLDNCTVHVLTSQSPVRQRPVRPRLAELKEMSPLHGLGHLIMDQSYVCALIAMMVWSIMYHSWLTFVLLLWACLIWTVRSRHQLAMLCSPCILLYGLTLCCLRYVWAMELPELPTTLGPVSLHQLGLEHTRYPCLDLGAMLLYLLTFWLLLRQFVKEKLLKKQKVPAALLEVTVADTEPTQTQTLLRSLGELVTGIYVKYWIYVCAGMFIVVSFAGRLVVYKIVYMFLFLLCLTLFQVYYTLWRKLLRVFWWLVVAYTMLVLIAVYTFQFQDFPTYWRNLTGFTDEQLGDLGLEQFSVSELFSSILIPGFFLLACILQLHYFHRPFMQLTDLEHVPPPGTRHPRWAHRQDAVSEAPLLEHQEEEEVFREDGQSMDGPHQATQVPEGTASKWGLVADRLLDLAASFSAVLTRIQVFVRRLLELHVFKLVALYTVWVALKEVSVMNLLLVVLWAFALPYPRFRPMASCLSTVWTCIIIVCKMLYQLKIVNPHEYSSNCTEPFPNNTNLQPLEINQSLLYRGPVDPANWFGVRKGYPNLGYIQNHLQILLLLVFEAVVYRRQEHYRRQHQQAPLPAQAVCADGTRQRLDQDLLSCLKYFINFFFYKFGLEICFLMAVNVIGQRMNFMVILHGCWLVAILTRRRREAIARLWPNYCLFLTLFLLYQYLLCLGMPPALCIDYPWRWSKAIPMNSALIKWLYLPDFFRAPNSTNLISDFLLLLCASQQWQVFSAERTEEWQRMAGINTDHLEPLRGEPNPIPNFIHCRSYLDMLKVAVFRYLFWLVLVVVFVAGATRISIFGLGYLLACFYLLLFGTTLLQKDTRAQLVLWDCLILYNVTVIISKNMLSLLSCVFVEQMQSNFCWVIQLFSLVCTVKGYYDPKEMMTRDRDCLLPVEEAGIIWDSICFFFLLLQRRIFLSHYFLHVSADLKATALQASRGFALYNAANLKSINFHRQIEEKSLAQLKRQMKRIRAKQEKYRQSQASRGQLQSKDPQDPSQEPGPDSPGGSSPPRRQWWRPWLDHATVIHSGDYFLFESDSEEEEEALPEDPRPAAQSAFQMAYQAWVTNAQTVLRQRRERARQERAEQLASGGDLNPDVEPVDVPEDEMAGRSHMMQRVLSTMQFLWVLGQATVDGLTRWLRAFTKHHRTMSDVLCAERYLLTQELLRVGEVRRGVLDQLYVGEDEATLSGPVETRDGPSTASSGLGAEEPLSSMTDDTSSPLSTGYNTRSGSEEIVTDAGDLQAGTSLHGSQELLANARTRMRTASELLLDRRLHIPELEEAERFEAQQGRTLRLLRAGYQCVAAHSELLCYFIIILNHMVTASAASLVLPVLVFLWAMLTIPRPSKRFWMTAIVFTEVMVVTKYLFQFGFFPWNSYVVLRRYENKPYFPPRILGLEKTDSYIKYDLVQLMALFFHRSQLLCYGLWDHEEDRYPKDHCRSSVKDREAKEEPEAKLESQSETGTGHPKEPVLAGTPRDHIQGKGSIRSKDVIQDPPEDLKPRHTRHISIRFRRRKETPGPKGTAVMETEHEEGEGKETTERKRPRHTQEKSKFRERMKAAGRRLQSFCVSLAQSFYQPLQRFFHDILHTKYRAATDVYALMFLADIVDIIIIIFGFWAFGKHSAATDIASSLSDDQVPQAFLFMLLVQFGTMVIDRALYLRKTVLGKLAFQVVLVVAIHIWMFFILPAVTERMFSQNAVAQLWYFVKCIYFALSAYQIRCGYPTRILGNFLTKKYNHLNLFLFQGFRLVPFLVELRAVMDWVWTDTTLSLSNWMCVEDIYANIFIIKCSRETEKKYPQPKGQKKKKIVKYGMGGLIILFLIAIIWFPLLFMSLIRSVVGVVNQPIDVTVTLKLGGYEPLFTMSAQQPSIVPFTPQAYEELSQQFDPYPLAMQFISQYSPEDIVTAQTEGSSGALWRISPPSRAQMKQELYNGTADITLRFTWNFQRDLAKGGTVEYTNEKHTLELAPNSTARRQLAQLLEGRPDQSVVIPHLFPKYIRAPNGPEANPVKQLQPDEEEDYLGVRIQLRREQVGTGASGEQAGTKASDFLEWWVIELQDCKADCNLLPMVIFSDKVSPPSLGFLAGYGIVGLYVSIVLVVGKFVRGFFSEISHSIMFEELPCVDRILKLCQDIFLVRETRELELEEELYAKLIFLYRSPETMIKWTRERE
Method: (§1) Ionic currents were recorded through outside-out patches from cells using standard patch-clamp techniques in voltage-clamp mode. Patch pipettes were fire-polished and had resistance of 4–7 MΩ when filled with pipette solution. Ionic solution of composition (mM) NaCl 140, HEPES 10 and EGTA 5 (titrated to pH 7.4 using NaOH) was used in both the pipette and bath. Recordings were at a constant holding potential of −80 mV. 200-ms pressure steps were applied to the patch pipette with an interval of 12 s using High Speed Pressure Clamp HSPC-1 System (ALA Scientific Instruments, USA). All recordings were made with an Axopatch-200B amplifier (Axon Instruments, Inc., USA) equipped with Digidata 1550B and pClamp (v10.6) software (Molecular Devices, USA) at room temperature (21 ± 2°C). Currents were filtered at 2–5 kHz and digitally sampled at 5–20 kHz.

G1994D mPIEZO1 = target: T2, G1994D mPIEZO1 (Mus musculus, UniProt E2JF22, G1994D); assay: Outside-out patch recording with pressure pulses; conditions: for Currents at given pressure / Pressure-response, individual cells (Figure 5f) / Mean (pressure-response, Figure 5f): G1994D + Yoda1; for Pressure-response, individual cells (Figure 5f): cell1-cell10; for Mean (pressure-response, Figure 5f): mean of cells 1-10;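 as to Mean (pressure-response, Figure 5f): peak current normalised to each patch's maximum peak current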;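 as to Pressure-response, individual cells (Figure 5f): peak current normalised to each patch's maximum peak current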
T2 construct: expressed in transfected cells
T2 sequence (E2JF22 whole entry G1994D): as the sequence (E2JF22 whole entry I2286T) above, with G1994D, T2286I counted along it
Method: as §1

R2351Q mPIEZO1 = target: T3, R2351Q mPIEZO1 (Mus musculus, UniProt E2JF22, R2351Q); assay: Outside-out patch recording with pressure pulses
T3 construct: expressed in transfected cells
T3 sequence (E2JF22 whole entry R2351Q): as the sequence (E2JF22 whole entry I2286T) above, with T2286I, R2351Q counted along it
Method: as §1

G1978D hPIEZO1 = target: T4, G1978D hPIEZO1 (Homo sapiens, UniProt Q92508, G1978D); assay: Intracellular Ca2+ measurement (fura-2), T-REx-293 cells transiently transfected; conditions: 1 μM Y1, versus WT
T4 construct: expressed in transfected cells; host or cells: T-REx-293 (modified HEK293), transient
T4 sequence (Q92508 whole entry G1978D): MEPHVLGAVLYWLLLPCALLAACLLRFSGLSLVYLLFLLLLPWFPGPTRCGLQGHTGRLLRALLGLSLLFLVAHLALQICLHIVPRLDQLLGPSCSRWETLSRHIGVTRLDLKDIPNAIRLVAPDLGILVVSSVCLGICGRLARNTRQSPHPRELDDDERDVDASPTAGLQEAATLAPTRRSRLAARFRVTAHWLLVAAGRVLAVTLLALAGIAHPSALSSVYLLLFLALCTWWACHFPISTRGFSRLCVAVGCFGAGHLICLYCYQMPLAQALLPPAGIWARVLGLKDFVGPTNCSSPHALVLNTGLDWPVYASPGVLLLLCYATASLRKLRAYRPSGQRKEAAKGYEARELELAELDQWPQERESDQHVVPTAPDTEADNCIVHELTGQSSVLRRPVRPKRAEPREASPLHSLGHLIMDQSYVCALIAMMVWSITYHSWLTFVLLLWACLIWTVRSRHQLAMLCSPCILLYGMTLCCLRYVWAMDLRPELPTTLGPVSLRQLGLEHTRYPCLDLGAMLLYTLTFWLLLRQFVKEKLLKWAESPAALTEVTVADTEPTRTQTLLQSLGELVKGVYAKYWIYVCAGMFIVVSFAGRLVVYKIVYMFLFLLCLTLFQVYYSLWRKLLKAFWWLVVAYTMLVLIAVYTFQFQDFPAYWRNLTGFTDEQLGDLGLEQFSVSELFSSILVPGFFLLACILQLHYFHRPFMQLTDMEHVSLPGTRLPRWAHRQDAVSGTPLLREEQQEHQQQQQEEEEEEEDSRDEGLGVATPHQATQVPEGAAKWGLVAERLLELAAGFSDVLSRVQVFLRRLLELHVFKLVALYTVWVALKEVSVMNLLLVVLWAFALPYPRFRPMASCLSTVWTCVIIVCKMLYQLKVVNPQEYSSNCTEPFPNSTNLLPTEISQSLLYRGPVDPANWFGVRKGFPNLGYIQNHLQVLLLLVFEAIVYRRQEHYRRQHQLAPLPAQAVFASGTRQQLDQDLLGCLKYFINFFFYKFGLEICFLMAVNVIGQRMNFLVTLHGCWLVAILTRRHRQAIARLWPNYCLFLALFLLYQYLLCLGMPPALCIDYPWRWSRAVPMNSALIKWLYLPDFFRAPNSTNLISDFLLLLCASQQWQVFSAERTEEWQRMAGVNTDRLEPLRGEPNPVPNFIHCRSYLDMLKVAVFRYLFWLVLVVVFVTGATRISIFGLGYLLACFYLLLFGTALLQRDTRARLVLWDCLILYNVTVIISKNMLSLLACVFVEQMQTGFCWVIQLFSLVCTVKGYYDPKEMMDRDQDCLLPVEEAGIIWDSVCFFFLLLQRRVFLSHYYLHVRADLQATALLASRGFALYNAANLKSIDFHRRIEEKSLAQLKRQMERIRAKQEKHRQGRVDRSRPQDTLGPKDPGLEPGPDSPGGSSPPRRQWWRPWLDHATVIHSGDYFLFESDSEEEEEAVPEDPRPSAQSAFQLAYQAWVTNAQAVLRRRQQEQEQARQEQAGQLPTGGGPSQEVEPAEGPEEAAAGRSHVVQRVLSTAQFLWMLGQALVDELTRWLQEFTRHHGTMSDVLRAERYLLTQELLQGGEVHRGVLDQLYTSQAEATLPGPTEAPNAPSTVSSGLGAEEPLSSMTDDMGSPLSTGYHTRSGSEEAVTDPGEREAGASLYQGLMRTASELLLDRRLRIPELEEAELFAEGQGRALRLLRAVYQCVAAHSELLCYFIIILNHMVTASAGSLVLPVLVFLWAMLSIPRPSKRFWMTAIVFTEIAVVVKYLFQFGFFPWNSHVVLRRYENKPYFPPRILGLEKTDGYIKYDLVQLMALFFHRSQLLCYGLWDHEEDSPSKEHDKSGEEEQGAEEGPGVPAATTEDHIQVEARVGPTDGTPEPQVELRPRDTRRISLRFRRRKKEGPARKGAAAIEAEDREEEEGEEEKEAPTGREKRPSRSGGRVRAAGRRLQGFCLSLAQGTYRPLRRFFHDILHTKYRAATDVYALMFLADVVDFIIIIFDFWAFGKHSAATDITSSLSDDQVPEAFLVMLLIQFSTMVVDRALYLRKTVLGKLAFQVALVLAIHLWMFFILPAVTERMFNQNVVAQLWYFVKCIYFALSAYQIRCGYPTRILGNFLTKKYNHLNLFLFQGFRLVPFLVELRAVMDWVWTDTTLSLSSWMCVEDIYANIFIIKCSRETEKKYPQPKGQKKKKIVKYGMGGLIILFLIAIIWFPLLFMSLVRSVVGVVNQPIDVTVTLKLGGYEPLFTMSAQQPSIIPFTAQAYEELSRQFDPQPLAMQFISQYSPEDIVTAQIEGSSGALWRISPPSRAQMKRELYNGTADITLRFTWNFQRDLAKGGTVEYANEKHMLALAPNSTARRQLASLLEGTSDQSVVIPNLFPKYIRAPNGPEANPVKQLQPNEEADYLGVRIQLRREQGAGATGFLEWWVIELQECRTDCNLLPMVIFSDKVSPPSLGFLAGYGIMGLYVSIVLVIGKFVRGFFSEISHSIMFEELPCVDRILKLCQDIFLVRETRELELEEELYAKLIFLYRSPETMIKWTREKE
Method: HEK 293 cell line was transiently transfected at 90% confluence using Lipofectamine 2000 (Invitrogen) in OptiMEM (Gibco). Briefly: 500 ng endotoxin-free DNA per 100μL OptiMEM was prepared alongside 3μL Lipofectamine 2000 per 100μL OptiMEM (Gibco). Both were incubated for 5 min and then mixed, and then incubated at room temperature (21°C–24°C) for 20–30 min. Finally, the transfection mix was gently added dropwise to the cells and the cells were placed in a humidified incubator at 37°C supplied with 5% CO2 for 5 h. Medium was replaced afterward, and cells were used for experimentation 48 h after transfection.
For intracellular Ca^2+ assays, cells were plated at 80–90% confluence in 96-well plates 24 h prior to recordings (6–8 × 10^4 cells per well). […] Cells were washed with SBS and incubated at room temperature for 20 min prior to recordings. Equal volumes of 2x concentrated compounds were injected to test for acute channel activation. Pre-incubation with compounds occurred during the 20 min prior to recordings. To expose cell membranes to hypo-osmolality, an equal volume of hypotonic SBS (containing only 35 mM NaCl) was injected onto the cells. Measurements were made on a fluorescence plate reader (Flexstation III, Molecular Devices) at room temperature (21 ± 2°C). Fura-2 was excited at 340 nm and 380 nm and emitted light collected at 510 nm, with measurements shown as the change in fluorescence (F) ratio (ΔF340/380).
KC41 (Dooku1) was prepared as described.[28] All purchased chemicals and solvents were used without further purification unless otherwise stated. All compounds were at least 95% pure by 1H NMR. 1H Nuclear Magnetic Resonance spectra were recorded at 500 MHz using a Bruker DRX 500 instrument or at 400 MHz using a Bruker DPX 400. 1H spectra are referenced based on the residual proton in the solvent (e.g., the CHCl3, 0.01% in 99.99% CDCl3). Coupling constants (J) are reported to the nearest 0.1 Hz. 13C NMR spectra were recorded at 125 MHz on 500 MHz spectrometers or at 100 MHz on 400 MHz spectrometers. LC-MS was performed on a Bruker Daltronics running a gradient of increasing acetonitrile (5–95%) in H2O both containing 0.1% formic acid at 1 mL.min^−1, on a short path C18 reverse phase column, detecting compounds with both a diode array detector and a Bruker mass spectrum analyser. HRMS was performed on a Bruker Daltonics micrOTOF using positive electrospray ionisation (ES+). Automated column chromatograph was carried out using a Biotage Isolera Four, using either Sfär Silica D or KP-Silica cartridges. HPLC was performed on an Agilent 1290 Infinity Series equipped with a UV detector and Hyperprep C18 reverse phase column. Key to NMR abbreviations: s (singlet), br s (broad singlet) d (doublet), dd (doublet of doublets), ddd (doublet of doublets of doublets), t (triplet), dt (doublet of triples), q (quartet), m (multiplet), ap. t (apparent triplet). For experiments, Yoda1 and its analogues were prepared as 10 mM stock solutions in 100% dimethyl sulfoxide (DMSO) before serial dilution in DMSO and final dilution in aqueous solution. Cells were exposed to 0.1% DMSO for all concentrations of the compounds from 0 to 10 μM.

Clc1cccc(Cl)c1CSc1nnc(-c2cnccn2)s1 [Yoda1]
mechanical activation in the presence of the compound (I2286T mPIEZO1; 75 mmHg pressure pulses): pressure-evoked current now occurred
current (example trace) (I2286T mPIEZO1; time 30.5 ms): -0.41 pA
current (example trace) (I2286T mPIEZO1; time 30.5002 ms): -0.2269 pA
current (example trace) (I2286T mPIEZO1; time 30.5004 ms): -0.5932 pA
maximum amplitude of current evoked by the pressure pulse, Mean (I2286T mPIEZO1; 75 mmHg, -80 mV, n = 7): -80.8694 pA
Currents at given pressure (G1994D mPIEZO1; 0 mmHg, time 200.1 ms): -1.831 pA
Currents at given pressure (G1994D mPIEZO1; 0 mmHg, time 200.15 ms): 0.2743 pA
Currents at given pressure (G1994D mPIEZO1; 0 mmHg, time 200.2 ms): -1.526 pA
Currents at given pressure (G1994D mPIEZO1; 15 mmHg, time 200.1 ms): 1.03 pA
Currents at given pressure (G1994D mPIEZO1; 15 mmHg, time 200.15 ms): -0.5571 pA
Currents at given pressure (G1994D mPIEZO1; 15 mmHg, time 200.2 ms): -0.1298 pA
Currents at given pressure (G1994D mPIEZO1; 30 mmHg, time 200.1 ms): -11.9666 pA
Currents at given pressure (G1994D mPIEZO1; 30 mmHg, time 200.15 ms): -9.769 pA
Currents at given pressure (G1994D mPIEZO1; 30 mmHg, time 200.2 ms): -5.161 pA
Currents at given pressure (G1994D mPIEZO1; 45 mmHg, time 200.1 ms): -2.0839 pA
Currents at given pressure (G1994D mPIEZO1; 45 mmHg, time 200.15 ms): -0.6801 pA
Currents at given pressure (G1994D mPIEZO1; 45 mmHg, time 200.2 ms): -0.497 pA
Currents at given pressure (G1994D mPIEZO1; 60 mmHg, time 200.1 ms): 1.1543 pA
Currents at given pressure (G1994D mPIEZO1; 60 mmHg, time 200.15 ms): -0.9209 pA
Currents at given pressure (G1994D mPIEZO1; 60 mmHg, time 200.2 ms): -0.8599 pA
Currents at given pressure (G1994D mPIEZO1; 75 mmHg, time 200.1 ms): -0.6364 pA
Currents at given pressure (G1994D mPIEZO1; 75 mmHg, time 200.15 ms): 0.6148 pA
Currents at given pressure (G1994D mPIEZO1; 75 mmHg, time 200.2 ms): 0.06549 pA
Currents at given pressure (G1994D mPIEZO1; 90 mmHg, time 200.1 ms): -1.92 pA
Currents at given pressure (G1994D mPIEZO1; 90 mmHg, time 200.15 ms): -2.409 pA
Currents at given pressure (G1994D mPIEZO1; 90 mmHg, time 200.2 ms): -0.1504 pA
Currents at given pressure (G1994D mPIEZO1; 105 mmHg, time 200.1 ms): -0.4419 pA
Currents at given pressure (G1994D mPIEZO1; 105 mmHg, time 200.15 ms): -1.449 pA
Currents at given pressure (G1994D mPIEZO1; 105 mmHg, time 200.2 ms): 0.2905 pA
Pressure-response, individual cells (Figure 5f) (G1994D mPIEZO1; pressure 0 mmHg): 1.59E-17 and -8.38E-17 and 0 (4×) and -2.96E-17 and -2.69E-17 and -3.91E-17 and 3.74E-17
Mean (pressure-response, Figure 5f) (G1994D mPIEZO1; pressure 0 mmHg): -1.26E-17
Pressure-response, individual cells (Figure 5f) (G1994D mPIEZO1; pressure 15 mmHg): 0.08197 and 0.01125 and 0.01265 and 0.01555 and 0.01655 and 0.00717 and 0.01084 and 0.05939 and 0.00309 and 0.1064
Mean (pressure-response, Figure 5f) (G1994D mPIEZO1; pressure 15 mmHg): 0.03249
Pressure-response, individual cells (Figure 5f) (G1994D mPIEZO1; pressure 30 mmHg): 0.03806 and -0.00981 and 0.03807 and 0.05062 and 0.03544 and 0.00903 and 0.00593 and 0.02358 and 0.08822 and 0.1193
Mean (pressure-response, Figure 5f) (G1994D mPIEZO1; pressure 30 mmHg): 0.03984
pressure for 50% activation (P50), Boltzmann mid-point (G1994D mPIEZO1; in 5 μM Yoda1, -80 mV): 64.0 mmHg
mechanical activation in the presence of the compound (R2351Q mPIEZO1; 5 μM, 75 mmHg pressure pulses): robust mechanical activation of the variant channels
currents at given condition, individual cells (cell1-cell7) (R2351Q mPIEZO1; R2351Q, Yoda1, Figure 4e): -87.925 pA and -24.5178 pA and -36.1129 pA and -20.7822 pA and -20.109 pA and -65.4339 pA and -114.364 pA
currents at given condition, Mean (R2351Q mPIEZO1; R2351Q, Yoda1, mean of 7 cells, Figure 4e): -52.7493 pA
Effect on hPIEZO1 channel function (G1978D hPIEZO1): reduced 1 μM Y1 effect
